Data on eight compounds can be found in patent US20240254087A1, “SELECTIVE, PARTIAL, AND ARRESTIN-BIASED 5-HT2A AGONISTS WITH UTILITY IN VARIOUS DISORDERS” (Saint Joseph's University, priority 2021, published 2024).

Each structure is given as a SMILES string.

T1 sequence (P28223 whole entry): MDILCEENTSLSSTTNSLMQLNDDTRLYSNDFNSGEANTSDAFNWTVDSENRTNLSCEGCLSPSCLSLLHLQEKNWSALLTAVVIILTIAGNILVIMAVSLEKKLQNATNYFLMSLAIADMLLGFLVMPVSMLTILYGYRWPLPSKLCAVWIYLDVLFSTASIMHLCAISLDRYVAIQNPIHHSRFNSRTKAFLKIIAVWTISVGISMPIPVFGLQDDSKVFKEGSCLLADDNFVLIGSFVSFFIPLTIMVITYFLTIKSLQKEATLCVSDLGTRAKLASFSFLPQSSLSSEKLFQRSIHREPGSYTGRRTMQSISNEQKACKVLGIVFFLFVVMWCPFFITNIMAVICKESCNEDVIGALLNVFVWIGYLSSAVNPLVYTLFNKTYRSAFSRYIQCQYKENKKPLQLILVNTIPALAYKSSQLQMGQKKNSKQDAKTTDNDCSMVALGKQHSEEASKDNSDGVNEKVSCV

One assay has as its target T1, 5-HT2A (Homo sapiens, UniProt P28223). The assay is described as follows: cell-based. Also noted: expressed in transfected cells; host or cells: HEK293T, transient.
Details: not given
The method, then:
(§1) After at least 18-24 hours, transfected cells were plated in poly-lysine coated 96-well white clear bottom cell culture plates in DMEM containing 1% dialyzed FBS at a density of 25-40,000 cells in 200 μL per well and incubated overnight. After approximately 20-24 hours, media was decanted and cells were washed with 60 μL of drug buffer (1×HBSS, 20 mM HEPES, pH 7.4), followed by 60 μL of drug buffer and pre-incubated in a humidified atmosphere at 37° C. before receiving drug stimulation. Drug stimulation was induced by adding 30 μL of a solution of drug (3X) diluted in McCorvy buffer (1×HBSS, 20 mM HEPES, pH 7.4, supplemented with 0.3% BSA fatty acid free, 0.03% ascorbic acid) and plates were incubated at the indicated time and temperature. Fifteen minutes before reading, 10 μL of the RLuc substrate, either coelenterazine h for β-Arrestin recruitment BRET^1 or coelenterazine 400a for Gq dissociation BRET^2 (Prolume/Nanolight, 5 μM final concentration) was addedper well. […] The BRET ratios of fluorescence/luminescence were calculated per well and were plotted as a function of drug concentration using Graphpad Prism 8 (Graphpad Software Inc., San Diego, CA).
In turn, `COc1cc(Br)c(CCNCc2cccc(C)c2O)cc1OC` [(43), 2-(((2-bromo-4,5-dimethoxyphenethyl)-amino)-methyl)-6-methylphenol] showed an EC50 of 6.46 nM.

In turn, `COc1cc(OC)c(OC)cc1CCNCc1cccc(-c2ccccc2)c1` [(62)] showed an EC50 of 182 nM.

Still in this assay, the particulars now being: BRET, mean ± SEM; read-out: 5-HT2A Gq dissociation pEC50 (converted).
As for `COc1cc(CCNCc2cccc(C)c2O)cc(OC)c1Br` [(44)], the EC50 is 12 nM.

Take `COc1cc(Br)c(Br)c(OC)c1CCNCc1cccc(C)c1O` [(45)]: the EC50 was 2.24 nM.

Regarding `COc1cc(Cl)ccc1CC(C)NCc1cccc(C)c1O` (stereo not shown) [(46)], the EC50 is 4.79 nM.

For `COc1cc(CCNCc2cccc(C)c2O)ccc1Cl` [(47)], the EC50 is 30.9 nM.

For `COc1cc(OC)c(OC)cc1CCNCc1cccc(Br)c1O` [(48)], the EC50 was 20.4 nM.

As for `COc1cc(OC)c(OC)cc1CCNCc1cccc(I)c1O` [(49)], the EC50 is 14.5 nM.

Staying with this assay, now noted: read-out: 5-HT2A Gq Emax (% 5-HT), BRET, mean ± SEM.
Turning to `COc1cc(Br)c(CCNCc2cccc(C)c2O)cc1OC` [(43), 2-(((2-bromo-4,5-dimethoxyphenethyl)-amino)-methyl)-6-methylphenol], the maximal effect (Emax) is 65.4 ± 1.4%.

As for `COc1cc(CCNCc2cccc(C)c2O)cc(OC)c1Br` [(44)], the Emax turned out to be 70.4 ± 1.2%.

With `COc1cc(Br)c(Br)c(OC)c1CCNCc1cccc(C)c1O` [(45)], the Emax stood at 70.5 ± 2%.

Consider `COc1cc(Cl)ccc1CC(C)NCc1cccc(C)c1O` (stereo not shown) [(46)], for which the maximum response (Emax) came to 67.8 ± 1.6%.

As for `COc1cc(CCNCc2cccc(C)c2O)ccc1Cl` [(47)], the Emax turned out to be 66.9 ± 1.8%.

`COc1cc(OC)c(OC)cc1CCNCc1cccc(Br)c1O` [(48)]: the Emax came out at 53.6 ± 1.7%.

As for `COc1cc(OC)c(OC)cc1CCNCc1cccc(I)c1O` [(49)], the Emax was found to be 52.8 ± 1.5%.

Regarding `COc1cc(OC)c(OC)cc1CCNCc1cccc(-c2ccccc2)c1` [(62)], the Emax was 23.7 ± 2.1%.

A further assay addresses T1, 5-HT2A. In words: cell-based.
Details: not given
Also noted: expressed in transfected cells; host or cells: HEK293T, transient. This is another data set of the same source. The method, then: as §1
`COc1cc(Br)c(CCNCc2cccc(C)c2O)cc1OC` [(43), 2-(((2-bromo-4,5-dimethoxyphenethyl)-amino)-methyl)-6-methylphenol] showed an EC50 of 6.31 nM.

The same assay, now with this note: BRET, mean ± SEM; read-out: 5-HT2A β-arrestin recruitment pEC50 (converted).
`COc1cc(CCNCc2cccc(C)c2O)cc(OC)c1Br` [(44)]: the EC50 is 11.2 nM.

Take `COc1cc(Br)c(Br)c(OC)c1CCNCc1cccc(C)c1O` [(45)]: the EC50 was 1.32 nM.

For the compound `COc1cc(Cl)ccc1CC(C)NCc1cccc(C)c1O` (stereo not shown) [(46)], the EC50 was 1.12 nM.

Turning to `COc1cc(CCNCc2cccc(C)c2O)ccc1Cl` [(47)], the EC50 is 6.92 nM.

As to `COc1cc(OC)c(OC)cc1CCNCc1cccc(Br)c1O` [(48)], the EC50 was 8.13 nM.

On to `COc1cc(OC)c(OC)cc1CCNCc1cccc(I)c1O` [(49)], for which the EC50 was 11.7 nM.

As to `COc1cc(OC)c(OC)cc1CCNCc1cccc(-c2ccccc2)c1` [(62)], the EC50 is 56.2 nM.

Still in this assay, the particulars now being: read-out: 5-HT2A β-arrestin Emax (% 5-HT), BRET, mean ± SEM.
Turning to `COc1cc(Br)c(CCNCc2cccc(C)c2O)cc1OC` [(43), 2-(((2-bromo-4,5-dimethoxyphenethyl)-amino)-methyl)-6-methylphenol], the Emax stood at 91.7 ± 3.4%.

In the case of `COc1cc(CCNCc2cccc(C)c2O)cc(OC)c1Br` [(44)], the Emax was 66.1 ± 2.8%.

With `COc1cc(Br)c(Br)c(OC)c1CCNCc1cccc(C)c1O` [(45)], the Emax came to 77.5 ± 6%.

Take `COc1cc(Cl)ccc1CC(C)NCc1cccc(C)c1O` (stereo not shown) [(46)]: the Emax amounted to 72.9 ± 5.6%.

For `COc1cc(CCNCc2cccc(C)c2O)ccc1Cl` [(47)], the maximal response (Emax) came out at 80.5 ± 3.2%.

As to `COc1cc(OC)c(OC)cc1CCNCc1cccc(Br)c1O` [(48)], the Emax came to 85 ± 4.8%.

Regarding `COc1cc(OC)c(OC)cc1CCNCc1cccc(I)c1O` [(49)], the Emax amounted to 80.5 ± 5.5%.

As for `COc1cc(OC)c(OC)cc1CCNCc1cccc(-c2ccccc2)c1` [(62)], the Emax was 112 ± 6.2%.

Another assay deals with 5-HT2B (Homo sapiens, UniProt P41595). In words: BRET Gq dissociation, 5-HT2B. It is filed as cell-based. Further details: expressed in transfected cells; host or cells: HEK293T, transient.
Sequence of 5-HT2B (P41595 whole entry): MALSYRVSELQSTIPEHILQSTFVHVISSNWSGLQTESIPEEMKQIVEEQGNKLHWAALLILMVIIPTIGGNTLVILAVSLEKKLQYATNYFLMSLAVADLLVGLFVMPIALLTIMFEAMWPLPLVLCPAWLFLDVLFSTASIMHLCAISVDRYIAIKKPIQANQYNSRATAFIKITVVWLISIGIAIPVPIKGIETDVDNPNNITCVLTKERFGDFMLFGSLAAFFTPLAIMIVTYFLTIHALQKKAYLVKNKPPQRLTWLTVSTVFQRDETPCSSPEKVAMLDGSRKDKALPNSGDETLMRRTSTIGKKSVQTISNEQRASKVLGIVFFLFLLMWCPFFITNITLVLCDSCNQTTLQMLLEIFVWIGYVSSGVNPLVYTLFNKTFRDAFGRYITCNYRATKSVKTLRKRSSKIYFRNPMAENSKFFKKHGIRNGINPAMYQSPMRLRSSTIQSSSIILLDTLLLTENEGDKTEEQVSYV
Details: not given
As for the experimental part: After at least 18-24 hours, transfected cells were plated in poly-lysine coated 96-well white clear bottom cell culture plates in DMEM containing 1% dialyzed FBS at a density of 25-40,000 cells in 200 μL per well and incubated overnight. After approximately 20-24 hours, media was decanted and cells were washed with 60 μL of drug buffer (1×HBSS, 20 mM HEPES, pH 7.4), followed by 60 μL of drug buffer and pre-incubated in a humidified atmosphere at 37° C. before receiving drug stimulation. Drug stimulation was induced by adding 30 μL of a solution of drug (3X) diluted in McCorvy buffer (1×HBSS, 20 mM HEPES, pH 7.4, supplemented with 0.3% BSA fatty acid free, 0.03% ascorbic acid) and plates were incubated at the indicated time and temperature. Fifteen minutes before reading, 10 μL of the RLuc substrate, either coelenterazine h for β-Arrestin recruitment BRET^1 or coelenterazine 400a for Gq dissociation BRET^2 (Prolume/Nanolight, 5 μM final concentration) was addedper well. Plates were read for luminescence at 485 nm and fluorescent eYFP emission at 530 nm for BRET^1 and at 400 nm and fluorescent GFP2 emission at 510 nm for BRET2 at 1 second per well using a Mithras LB940 (Berthold). The BRET ratios of fluorescence/luminescence were calculated per well and were plotted as a function of drug concentration using Graphpad Prism 8 (Graphpad Software Inc., San Diego, CA).
A general note: Bioluminescence resonance energy transfer reports proximity on the nanometre scale.
Regarding `COc1cc(Br)c(CCNCc2cccc(C)c2O)cc1OC` [(43), 2-(((2-bromo-4,5-dimethoxyphenethyl)-amino)-methyl)-6-methylphenol], the “5-HT2B Gq Dissociation (BRET) EMAX ± SEM (%5-HT)” value is recorded as “No activity” and the “5-HT2B Gq Dissociation (BRET) pEC50 ± SEM” value is listed as “No activity”.

In the case of `COc1cc(CCNCc2cccc(C)c2O)cc(OC)c1Br` [(44)], the “5-HT2B Gq Dissociation (BRET) EMAX ± SEM (%5-HT)” value was “No activity” and the “5-HT2B Gq Dissociation (BRET) pEC50 ± SEM” value is recorded as “No activity”.

Turning to `COc1cc(Br)c(Br)c(OC)c1CCNCc1cccc(C)c1O` [(45)], the “5-HT2B Gq Dissociation (BRET) EMAX ± SEM (%5-HT)” value is given as “No activity” and the “5-HT2B Gq Dissociation (BRET) pEC50 ± SEM” value is “No activity”.

As for `COc1cc(Cl)ccc1CC(C)NCc1cccc(C)c1O` (stereo not shown) [(46)], the “5-HT2B Gq Dissociation (BRET) EMAX ± SEM (%5-HT)” value is recorded as “No activity” and the “5-HT2B Gq Dissociation (BRET) pEC50 ± SEM” value is given as “No activity”.

As for `COc1cc(CCNCc2cccc(C)c2O)ccc1Cl` [(47)], the “5-HT2B Gq Dissociation (BRET) EMAX ± SEM (%5-HT)” value is given as “No activity” and the “5-HT2B Gq Dissociation (BRET) pEC50 ± SEM” value was “No activity”.

Consider `COc1cc(OC)c(OC)cc1CCNCc1cccc(Br)c1O` [(48)], for which the “5-HT2B Gq Dissociation (BRET) EMAX ± SEM (%5-HT)” value is on record as “No activity” and the “5-HT2B Gq Dissociation (BRET) pEC50 ± SEM” value is listed as “No activity”.

Consider `COc1cc(OC)c(OC)cc1CCNCc1cccc(I)c1O` [(49)], for which the “5-HT2B Gq Dissociation (BRET) EMAX ± SEM (%5-HT)” value was “No activity” and the “5-HT2B Gq Dissociation (BRET) pEC50 ± SEM” value is listed as “No activity”.

Turning to `COc1cc(OC)c(OC)cc1CCNCc1cccc(-c2ccccc2)c1` [(62)], the “5-HT2B Gq Dissociation (BRET) EMAX ± SEM (%5-HT)” value is “No activity” and the “5-HT2B Gq Dissociation (BRET) pEC50 ± SEM” value was “No activity”.

The next assay addresses T2, 5-HT2C (Homo sapiens, UniProt P28335).
T2 sequence (P28335 33-458): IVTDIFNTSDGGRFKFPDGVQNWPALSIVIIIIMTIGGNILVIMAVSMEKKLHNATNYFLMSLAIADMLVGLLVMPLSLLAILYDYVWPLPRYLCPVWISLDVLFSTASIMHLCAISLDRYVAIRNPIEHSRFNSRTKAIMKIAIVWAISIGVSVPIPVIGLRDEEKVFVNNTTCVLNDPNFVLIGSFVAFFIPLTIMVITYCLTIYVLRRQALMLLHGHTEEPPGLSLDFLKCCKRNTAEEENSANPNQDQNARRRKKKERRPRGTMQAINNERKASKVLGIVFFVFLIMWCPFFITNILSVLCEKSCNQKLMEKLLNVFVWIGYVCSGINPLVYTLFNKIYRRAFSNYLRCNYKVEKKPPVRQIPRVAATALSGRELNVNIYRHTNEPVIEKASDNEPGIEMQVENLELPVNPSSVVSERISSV
The assay is described as follows: BRET Gq dissociation, 5-HT2C.
Details: not given
Also noted: expressed in transfected cells; host or cells: HEK293T, transient. Format: cell-based. As for the experimental part:
as §1
`COc1cc(Br)c(CCNCc2cccc(C)c2O)cc1OC` [(43), 2-(((2-bromo-4,5-dimethoxyphenethyl)-amino)-methyl)-6-methylphenol] gave an EC50 of 20.9 nM.

The assay is the same for the next values; noted with them: read-out: 5-HT2C Gq Dissociation (BRET) EMAX ± SEM (%5-HT).
Regarding `COc1cc(Br)c(CCNCc2cccc(C)c2O)cc1OC` [(43), 2-(((2-bromo-4,5-dimethoxyphenethyl)-amino)-methyl)-6-methylphenol], the Emax was determined as 75.4 ± 2%.

In the case of `COc1cc(CCNCc2cccc(C)c2O)cc(OC)c1Br` [(44)], the Emax was 80.2 ± 2.1%.

With `COc1cc(Br)c(Br)c(OC)c1CCNCc1cccc(C)c1O` [(45)], the Emax turned out to be 81 ± 2.1%.

Take `COc1cc(Cl)ccc1CC(C)NCc1cccc(C)c1O` (stereo not shown) [(46)]: the Emax turned out to be 95.5 ± 3.2%.

On to `COc1cc(CCNCc2cccc(C)c2O)ccc1Cl` [(47)], for which the Emax was determined as 98 ± 3.1%.

In the case of `COc1cc(OC)c(OC)cc1CCNCc1cccc(Br)c1O` [(48)], the Emax is 69.2 ± 6.1%.

Consider `COc1cc(OC)c(OC)cc1CCNCc1cccc(I)c1O` [(49)], for which the Emax came out at 93.5 ± 3.1%.

Consider `COc1cc(OC)c(OC)cc1CCNCc1cccc(-c2ccccc2)c1` [(62)], for which the Emax came out at 72.8 ± 5.2%.

The same assay, now with this note: read-out: 5-HT2C Gq Dissociation (BRET) pEC50 ± SEM (converted).
Take `COc1cc(CCNCc2cccc(C)c2O)cc(OC)c1Br` [(44)]: the EC50 was 7.08 nM.

Turning to `COc1cc(Br)c(Br)c(OC)c1CCNCc1cccc(C)c1O` [(45)], the EC50 is 1.51 nM.

As for `COc1cc(Cl)ccc1CC(C)NCc1cccc(C)c1O` (stereo not shown) [(46)], the EC50 was 11.5 nM.

For `COc1cc(CCNCc2cccc(C)c2O)ccc1Cl` [(47)], the EC50 was 19.5 nM.

On to `COc1cc(OC)c(OC)cc1CCNCc1cccc(Br)c1O` [(48)], for which the EC50 is 174 nM.

As to `COc1cc(OC)c(OC)cc1CCNCc1cccc(I)c1O` [(49)], the EC50 was 26.9 nM.

For the compound `COc1cc(OC)c(OC)cc1CCNCc1cccc(-c2ccccc2)c1` [(62)], the EC50 was 219 nM.

As usually defined, the Emax is the maximal effect, on the per cent scale that the assay sets.
